From patent publication US9910031B2, “Compositions and methods for modulating c-Rel-dependent cytokine production” (Synta Pharmaceuticals Corporation, priority 2003, dated 2018)

Assays:
PU-1 = assay: Western blot of PU-1 in THP-1 nuclear extracts (Ets-2 DNA element beads); format: cell-based, human
Excerpt: (§1) Of the transcription factors that have been analyzed, two factors, ICSBP and c-Rel, seem to be affected by Compound 1/Compound 2 treatment. ICSBP binds indirectly to the Ets-2 site. The primary NFκB trans-activator for IL-12 is the c-Rel/p50 heterodimer. Other dimers (p65/p50 and p50/p50) either lack activity or have inhibitory functions. Thus, c-Rel plays a role in IL-12 transcription as a result of both activation through NFκB and its interaction with ICSBP. […] The membranes were blocked with 5% milk in TBST buffer and then incubated with anti-c-Rel, anti-p65, anti-p50, anti-ICSBP or anti-PU-1 antibody (all the antibodies were purchased from Santa Cruz) at a dilution of 1:500 for 1 h at room temperature or overnight at 4° C. The membranes were washed and incubated with Horseradish Peroxidase-conjugated anti-rabbit IgG or anti-mouse IgG (Amersham, England) at a dilution of 1:2000 at room temperature for 1 h.
The transcription factor ICSBP binds to the Ets-2 element indirectly through binding to PU-1. Nuclear extracts were bound to Ets-2 DNA element beads, the beads isolated to separate bound from free protein, and the proteins analyzed on Western blots using antibodies to either ICSBP or PU-1. […] Eluted materials were separated by 10% SDS-PAGE and detected by immunoblot analysis using anti-ICSBP or anti-PU-1 antibody.

c-Rel = assay: Western blot of nuclear c-Rel in THP-1 cells; format: cell-based, human
Excerpt: In order to understand this changes, the subcellular localization of NF-κB proteins was investigated using western blot analysis.
as §1
THP-1 cells were suspended in 20 volumes of buffer A containing 10 mM KCl, 10 mM HEPES (pH 7.9), 1 mM MgCl2, 1 mM dithiothreitol (DTT), 0.1% Nonidet p40 (NP-40), and 0.5 mM phenylmethylsulfonyl fluoride (PMSF) and homogenized and centrifuged at 10,000 rpm at 4 C for 5 min. […]

IL-12 p70 = IL-12 p70 production in human monocyte-derived dendritic cells; format: cell-based; conditions: IFN-γ primed then SAC or LPS
Procedure: Although c-Rel has a role in the expression of both p35 and p40 in monocytes and macrophages as well as p35 in dendritic cells (DCs), p40 expression in dendritic cells is c-Rel-independent (Grumont et al. J. Exp. Med. 2001; 194:1021-1031). If Compound 2 is acting through c-Rel, this drug should inhibit both p40 and p70 production by PBMCs. However, Compound 2 should inhibit the production of p70 (through inhibition of p35) in DCs, but should not inhibit p40 in DCs. This was tested by generating monocyte-derived dendritic cells according to the following method. Human PBMC at 1×10^7 cells/ml were suspended in serum-free DMEM and incubated for 2 hrs at 37° C. under 5% CO2. The non-adherent cells then were removed by washing with PBS. The adherent cells were cultured in RPMI-1640 medium containing rhIL-4 (100 U/ml) and rhGM-CSF (1000 U/ml) for 6-7 days. The half volume fresh media and full-volume fresh cytokines were added every other day. The cells were then primed with IFN-γ (100 U/ml) and followed by 0.01% SAC or 1 μg/ml LPS, in the presence of different concentrations of Compound 2 or other compounds. The test compounds were prepared in DMSO and the final DMSO concentration was adjusted to 0.25% in all cultures, including the compound-free control. Cell-free supernatants were taken 18 h later for the measurement of cytokines.

Row | Compound | levels of PU-1 (FIG. 6) (PU-1) | amount of c-Rel protein in nuclear (c-Rel; 500 nM, 3 hr, relative to untreated cells) | nuclear c-Rel level (FIG. 4) (c-Rel; THP1, IFN-γ plus LPS or IFN-γ plus SAC) | p70 production in human DCs (IL-12 p70)
1 | C(=NNc1nc(OCCc2ccccn2)nc(N2CCOCC2)n1)c1c[nH]c2ccccc12 [Compound 1, N-(1H-indol-3-ylmethylene)-N′-[4-morpholin-4-yl-6-(2-pyridin-2-yl-ethoxy)-[1,3,5]triazin-2-yl]-hydrazine] | unaffected |  |  | 
2 | Cc1cccc(C=NNc2cc(N3CCOCC3)nc(OCCc3ccccn3)n2)c1 [Compound 2, N-(3-methyl-benzylidene)-N′-[6-morpholin-4-yl-2-(2-pyridin-2-yl-ethoxy)-pyrimidin-4-yl]-hydrazine] |  | decreased | significantly reduced | inhibit
